What all share (type): functional
The test system of test [1] is Hordeum vulgare subsp. vulgare. Briefly: Amylase induction activity in barley aleurone layer at 0.01 uM.
Test [2] relates to Hordeum vulgare subsp. vulgare. Briefly: Amylase induction activity in barley aleurone layer at 0.1 uM.
The test system of test [3] is Hordeum vulgare subsp. vulgare. Briefly: Amylase induction activity in barley aleurone layer at 1 uM.

Turning to `CC1=C(C(=O)O)[C@H]2[C@@H](C(C)C)CC[C@]1(C)[C@H]2CO`, the Activity was 0 in test [1], 1 in test [2] and 4 in test [3].
